“And” between values parts separate entries of the source, which are not always exact repeats. Equal entries are not always repeated.
Assays:
FlaA1 [1] = biological target: T1, FlaA1 (Helicobacter pylori, UniProt O25511); assay: Substrate specificity of FlaA1 (catalysis with related sugar-nucleotides); type: biochemical
T1 construct: hexahistidine tag (N); made in house; host or cells: E. coli BL21(DE3)pLysS (pET23 derivative)

FlaA1 [2] = biological target: T1, FlaA1; assay: Capillary electrophoresis analysis of reaction products and kinetic parameters of FlaA1; type: biochemical; details: for reaction products identified by capillary electrophoresis: sugar-nucleotide used as substrate of FlaA1
Experimental: The same reactions as above were prepared for capillary analysis using varying amounts of enzyme (440 or 54 ng) and 1 mM NAD^+ or not. The reaction mix was incubated for different reaction times. The specific conditions are indicated above. After incubation at 37° C. for the required amount of time, the reactions were quenched by boiling the sample for 6 min. Time course studies were performed with final sugar-nucleotide concentrations of 0.1 and 1.5 mM without NAD^+. Samples were quenched every 15 minutes for 2 h. […] Reactions were also performed using varying buffers such as 20 mM sodium phosphate or bis-tris-propane at pH 7, or 20 mM sodium acetate pH 6.5 and processed for CE analysis as described above.
Capillary electrophoresis (CE) analysis were performed using a P/ACE 5000 system (Beckman, Fullerton, Calif.) with UV detection as described before (Creuzenet et al. 2000). Briefly summarised, the running buffer was 25 mM sodium tetraborate pH 9.4. The capillary was bare silica 75 μm×57 cm, with a detector at 50 cm. The capillary was conditioned before each run by washing with 0.2 M NaOH for 2 min, water for 2 min, and running buffer for 2 min. Samples were introduced by pressure injection for 4 s and the separation was performed at 22 kV. Peak integration was done using the Beckman P/ACE Station software. Kinetic parameters were calculated by linear regression from Eadie-Hofstee plots.
The same reactions as above were prepared for capillary electrophoresis analysis and were quenched by boiling for 6 minutes without prior acidification. Capillary electrophoresis (CE) analysis was performed as described earlier (Creuzenet et al. 2000).

FlaA1 [3] = biological target: T1, FlaA1; assay: DMAB assay: enzymatic conversion of UDP-GlcNAc and UDP-GalNAc by FlaA1; type: biochemical; details: incubation with FlaA1, 37° C., 20 mM Tris pH 7, 1 mM NAD+
Experimental: Reactions were performed with a total reaction volume of 35 μl at 37° C. in 20 mM Tris pH 7 in the presence of 1.5 mM substrate and 1 mM NAD^+. The reactions were stopped by acid hydrolysis of the UDP moiety of the substrate. For this purpose, the samples were acidified to pH 2 by addition of 7 μl of HCl 1 N, boiled for 6 min, and neutralised by addition of 7 μl of NaOH 1 N. The spectrophotometric quantification of GalNAc and GlcNAc using DMAB was performed as described by Creuzenet et al. 2000. Briefly summarized, 100 μl of 0.2 M sodium tetraborate pH 9.1 were added to 50 μl of quenched and neutralised enzymatic reactions and boiled immediately for 3 min. 40 μl of this mixture were transferred to a microtitration plate and 200 μl of DMAB reagent (1% in glacial acetic acid/HCl 99/1 v/v) were added. After incubation for 30 min at 37° C., the OD595 nm was recorded using a microplate reader. The assay was done in duplicate for each reaction tested. Standard curves were prepared using UDP-GlcNAc and UDP-GalNAc that were subjected to acid hydrolysis in the same conditions as described above.

C4 epimerase WbpP = C4 epimerase WbpP (Pseudomonas aeruginosa, UniProt Q8KN66); details: Creuzenet et al. 2000; cited from earlier work
Chain of C4 epimerase WbpP (Q8KN66 whole entry): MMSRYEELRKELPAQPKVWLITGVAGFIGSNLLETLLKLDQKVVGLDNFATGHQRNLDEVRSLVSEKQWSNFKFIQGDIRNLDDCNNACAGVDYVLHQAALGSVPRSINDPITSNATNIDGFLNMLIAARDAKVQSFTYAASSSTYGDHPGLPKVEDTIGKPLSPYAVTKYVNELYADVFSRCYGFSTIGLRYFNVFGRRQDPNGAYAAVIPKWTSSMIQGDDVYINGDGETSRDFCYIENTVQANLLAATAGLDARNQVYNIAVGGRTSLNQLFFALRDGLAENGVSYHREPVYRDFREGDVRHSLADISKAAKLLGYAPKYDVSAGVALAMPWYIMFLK

T1 sequence (O25511 whole entry): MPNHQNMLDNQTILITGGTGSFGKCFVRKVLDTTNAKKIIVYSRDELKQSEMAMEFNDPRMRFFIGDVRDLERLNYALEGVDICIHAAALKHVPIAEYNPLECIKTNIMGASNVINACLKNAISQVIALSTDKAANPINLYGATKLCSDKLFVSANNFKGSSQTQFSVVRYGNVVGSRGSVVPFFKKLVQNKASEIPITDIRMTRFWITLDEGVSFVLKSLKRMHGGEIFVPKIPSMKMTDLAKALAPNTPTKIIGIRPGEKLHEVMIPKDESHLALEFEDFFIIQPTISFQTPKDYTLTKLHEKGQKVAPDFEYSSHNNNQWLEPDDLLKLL

Row | SMILES | catalysis by FlaA1 (substrate specificity) (FlaA1 [1]) | reaction products identified by capillary electrophoresis (FlaA1 [2]) | substrate conversion (decrease in OD595nm, DMAB assay) (FlaA1 [3]) [%] | Km (C4 epimerase WbpP) [µM] | kcat (FlaA1 [2]; pH 7, 37° C., 12.8 pmol enzyme) | Km (FlaA1 [2]; pH 7, 37° C., 440 ng fresh enzyme, no NAD+, 20 min) [µM] | Vmax (FlaA1 [2]; pH 7, 37° C., 440 ng fresh enzyme, no NAD+, 20 min, total substrate conversion)
1 | Nc1nc2c(ncn2[C@@H]2O[C@H](COP(=O)(O)OP(=O)(O)O[C@H]3O[C@H](CO)[C@@H](O)[C@H](O)[C@@H]3O)[C@@H](O)[C@H]2O)c(=O)[nH]1 [GDP-mannose] | Absence of catalysis | – | – | – | – | – | –
2 | CC(=O)N[C@H]1[C@@H](OP(=O)(O)OP(=O)(O)OC[C@H]2O[C@@H](n3ccc(=O)[nH]c3=O)[C@H](O)[C@@H]2O)O[C@H](CO)[C@H](O)[C@@H]1O [UDP-GalNAc, UDP-N-acetylgalactosamine] | can not proceed to catalysis | no reaction products could be identified | < 5 | – | – | – | –
3 | Cc1cn([C@H]2C[C@H](O)[C@@H](COP(=O)(O)OP(=O)(O)OC3O[C@H](CO)[C@@H](O)[C@H](O)[C@H]3O)O2)c(=O)[nH]c1=O (stereo partly drawn) [dTDP-D-glucose] | Absence of catalysis | – | – | – | – | – | –
4 | CC(=O)N[C@H]1[C@@H](OP(=O)(O)OP(=O)(O)OC[C@H]2O[C@@H](n3ccc(=O)[nH]c3=O)[C@H](O)[C@@H]2O)O[C@H](CO)[C@@H](O)[C@@H]1O [UDP-GlcNAc, UDP-N-acetylglucosamine] | – | two reaction products were identified | ≤ 55 | 220 | 0.085 s⁻¹ and 0.085 ± 0.0067 s⁻¹ | 159 | 0.065 nmol/min and 0.065 ± 0.006 nmol/min

From patent publication US6689567B1, “Method for assaying the function of FlaA1 and WbpM” (priority 1999, dated 2004)
